Source: ChEMBL document CHEMBL3507680, “University of Dundee, Gates Library screen for HepG2 cell viability”

Test: Human HepG2 cell viability assay in 384 well format
Assay type: toxicity, cell-based
Set-up: dose 125 nL, time 70.5 hour; cytotoxicity at 70.5 h: concentration not given beside the values
Details: HepG2 cells, read-out: Inhibition

SMILES: Cc1noc(C)c1NC(=O)N1CCC(NC(=O)OC(C)(C)C)CC1
- cytotoxicity at 70.5 h: -5.75%

SMILES: O=C(CCc1nccs1)N1CCN(c2ccccc2F)CC1
- cytotoxicity at 70.5 h: 34.9%

SMILES: CN1CCN(C2CCN(Cc3noc(-c4ccccc4)n3)CC2)C1=O
- cytotoxicity at 70.5 h: -3.63%

SMILES: CCc1nc(CN2CCCN(CC(O)c3ccccc3)CC2)no1 (stereo not drawn)
- cytotoxicity at 70.5 h: -8.08%

SMILES: CCn1cc(CN(C)S(=O)(=O)c2cc(Cl)ccc2Cl)cn1
- cytotoxicity at 70.5 h: 22.9%

SMILES: CC(CN1CCOCC1)NC(=O)NCc1ccc(Cl)s1 (stereo not drawn)
- cytotoxicity at 70.5 h: -7.44%

SMILES: O=S(=O)(c1cccs1)N1CC[C@H](O)[C@@H]1Cc1ccncc1
- cytotoxicity at 70.5 h: -1.15%

SMILES: Fc1ccc(-c2c[nH]c([C@@H]3COCCN3)n2)cc1
- cytotoxicity at 70.5 h: -9.31%

SMILES: Cc1nc(CNCC(C)c2nc3ccccc3o2)cs1 (stereo not drawn)
- cytotoxicity at 70.5 h: 0.552%

SMILES: CN(Cc1cn2ccccc2c1C#N)C1CCCN(c2cccnn2)C1 (stereo not drawn)
- cytotoxicity at 70.5 h: -11.9%

SMILES: CC(C)N(CCC#N)C(=O)c1cnc(-c2ccc3c(c2)OCO3)s1
- cytotoxicity at 70.5 h: -0.296%

SMILES: CC(C#N)CN(C)C(=O)CCNC(=O)OCC(F)(F)F (stereo not drawn)
- cytotoxicity at 70.5 h: -0.113%

SMILES: COc1ccc(F)c(NCC(C)(C)S(C)(=O)=O)c1
- cytotoxicity at 70.5 h: -4.68%

SMILES: COCCN1C[C@@H]2CN(Cc3cccc(C)n3)C[C@@H]2C1=O
- cytotoxicity at 70.5 h: -13.6%

SMILES: COc1ncc(NS(=O)(=O)c2ccc(F)cc2F)cn1
- cytotoxicity at 70.5 h: -3.22%

SMILES: c1cnnc(N2CCCC2CNCc2cccs2)c1 (stereo not drawn)
- cytotoxicity at 70.5 h: -1.72%

SMILES: Fc1ccc(CNCCn2cccn2)c(Cl)c1
- cytotoxicity at 70.5 h: 6.68%

SMILES: CCCn1ccnc1CN1C[C@@H](NC(C)=O)[C@H](c2ccc(OC)cc2)C1
- cytotoxicity at 70.5 h: 15.8%

SMILES: CN1CC(=O)N(c2cccc(F)c2)CC12CCN(Cc1cncn1C)C2 (stereo not drawn)
- cytotoxicity at 70.5 h: -4.15%

SMILES: CN1CCN(CCO)C(=O)C12CCN(Cc1ccsc1)CC2
- cytotoxicity at 70.5 h: -8.5%

SMILES: COc1ccc(CC(=O)N2CC(=O)NCC(C)(C)C2)cc1
- cytotoxicity at 70.5 h: 14.8%

SMILES: CC(CN1CCCC1)C(=O)NCC1CCN(c2cnn(C)c(=O)c2)CC1 (stereo not drawn)
- cytotoxicity at 70.5 h: -5.06%

SMILES: CCn1cnnc1C1CCN(C(=O)c2cccc(OC)c2OC)CC1
- cytotoxicity at 70.5 h: -7.68%

SMILES: O=C(CSC(F)(F)F)N1CCC2(CCCN(C3CCOCC3)C2=O)C1 (stereo not drawn)
- cytotoxicity at 70.5 h: 15%

SMILES: CCc1noc(CNc2cccc(C(=O)N3CCSCC3)c2)n1
- cytotoxicity at 70.5 h: 0.659%

SMILES: CCCS(=O)(=O)CCSc1cccc(C#N)c1
- cytotoxicity at 70.5 h: -11.2%

SMILES: CCc1ncc2c(n1)CN(C(=O)c1c(C)[nH]c(C(C)=O)c1C)C2
- cytotoxicity at 70.5 h: -9.15%

SMILES: CN(CCN1CCN(c2ccccc2)CC1)C(=O)Nc1ccncc1
- cytotoxicity at 70.5 h: -3.63%

SMILES: CCc1nc2n(n1)CC(NCC(=O)Nc1nccs1)CC2 (stereo not drawn)
- cytotoxicity at 70.5 h: 8%

SMILES: O=C(NCCCn1cccn1)NCC(c1ccco1)N1CCCC1 (stereo not drawn)
- cytotoxicity at 70.5 h: -2.3%

SMILES: O=C(c1ccccc1)C1CCN(Cc2cc3c(cc2O)CCC3)CC1
- cytotoxicity at 70.5 h: 33.9%

SMILES: CC(C)n1[nH]c(=O)c2c1NC(=O)CC2c1cccc(O)c1 (stereo not drawn)
- cytotoxicity at 70.5 h: -9.65%

SMILES: Cn1ccc(N2CCCC(NC(=O)c3ccsc3)C2=O)n1 (stereo not drawn)
- cytotoxicity at 70.5 h: 20.9%

SMILES: Cc1nnsc1-c1nnc2sc(C3CCC3)nn12
- cytotoxicity at 70.5 h: -10%

SMILES: N#CCCN(C(=O)CN1CCCC1c1ccsc1)c1ccccc1F (stereo not drawn)
- cytotoxicity at 70.5 h: -14%

SMILES: Cc1csc2c(=O)n(C(C)Cc3cccnc3)cnc12 (stereo not drawn)
- cytotoxicity at 70.5 h: -9.53%

SMILES: COc1cc2c(cc1CCC(=O)O)CCC2
- cytotoxicity at 70.5 h: 17.1%

SMILES: CC1(C)CCC(C(=O)O)c2ccccc21 (stereo not drawn)
- cytotoxicity at 70.5 h: -8.46%

SMILES: CN(C)C(=O)Cc1ccc(-c2cccc3c2CCNC3)cc1
- cytotoxicity at 70.5 h: -21.8%

SMILES: CCn1cc(CNC(=O)c2nn(CC)cc2Br)cn1
- cytotoxicity at 70.5 h: 8.71%

SMILES: CCCn1ncc(CN2CCCC(C(=O)c3ccc(Cl)cc3C)C2)c1C (stereo not drawn)
- cytotoxicity at 70.5 h: -7.11%

SMILES: Clc1cccc(Cl)c1-c1nnc(CNCCn2cccn2)o1
- cytotoxicity at 70.5 h: -4.1%

SMILES: CN(C)Cc1cncc2c1CCN(Cc1ccoc1)C2
- cytotoxicity at 70.5 h: -4.55%

SMILES: CCCNC(=O)COc1ccc(-c2ccccc2)nc1
- cytotoxicity at 70.5 h: -5.84%

SMILES: Cn1nnc2c1CCN(C(=O)C1CC1)C2COCCN1CCCC1 (stereo not drawn)
- cytotoxicity at 70.5 h: -3.87%

SMILES: OCC1CCCN1c1cc(NCCNc2ccccn2)ncn1 (stereo not drawn)
- cytotoxicity at 70.5 h: 0.758%

SMILES: Cc1ccc(CN2CCOC(c3cnccn3)C2)s1 (stereo not drawn)
- cytotoxicity at 70.5 h: -5.54%

SMILES: CO[C@H]1COC[C@@H]1NC(=O)C1(Oc2ccc(Cl)cc2)CCNCC1
- cytotoxicity at 70.5 h: -6.36%

SMILES: c1ccn(Cc2noc3c2CN(Cc2ccsc2)CC3)c1
- cytotoxicity at 70.5 h: -6.24%

SMILES: Cc1cnc(CN(C)C2CCN(Cc3nc4ccccc4o3)C2)o1 (stereo not drawn)
- cytotoxicity at 70.5 h: 15.3%

SMILES: Cc1nc(COCC2CN(C(=O)N(C)C)Cc3nccn3C2)cs1 (stereo not drawn)
- cytotoxicity at 70.5 h: -5.94%

SMILES: O=C(c1ccccn1)N1CCc2ncc(Cn3cccn3)n2CC1
- cytotoxicity at 70.5 h: -7.08%

SMILES: CC(=O)Nc1nc(C(=O)NCc2ccc(N3CCCC3)nc2)cs1
- cytotoxicity at 70.5 h: -7.65%

SMILES: CCN(Cc1cccc2c1OCCO2)C(=O)NC(C)(C)C
- cytotoxicity at 70.5 h: -2.31%

SMILES: CCc1ccc(CN2CCN(c3ncc(Cl)cn3)CC2)nc1
- cytotoxicity at 70.5 h: -5.54%

SMILES: Cc1nc(NC(=O)N2CCCC(C(F)(F)F)C2)nn1C (stereo not drawn)
- cytotoxicity at 70.5 h: -8%

SMILES: CCc1c(C)nc(C)nc1N1C[C@@H](CN(C)C)[C@@H](CO)C1
- cytotoxicity at 70.5 h: -1.15%

SMILES: COc1ccccc1CC(=O)N1CCN(Cc2ccco2)C[C@@H]1C
- cytotoxicity at 70.5 h: -2.18%
